{"source": "patent US4127522A", "about": "“Novel triacontapeptides, intermediates therefor and pharmaceutical compositions and methods employing said triacontapeptides” (priority 1977, dated 1978)", "origin": "cited, not measured here", "key": {"[1]": {"settings": "injected directly into the brain of the rat; Belluzzi et al."}, "[2]": {"tested_on": "partially purified brain opiate receptor sites", "settings": "natural peptide; Bradbury et al."}}, "data": [{"substance": "H-Tyr-Gly-Gly-Phe-Met-OH [methionine enkephalin]", "values": [{"measurement": "activity in bioassays for opiate activity", "setting": "opiate activity", "value": "very active"}, {"measurement": "analgesic activity", "setting": "[1]", "value": "only weak analgesic agent of short duration"}, {"measurement": "binding to partially purified brain opiate receptor sites", "setting": "[2]", "value": "binds stereo-specifically"}]}]}
